Test results: patent publication US8268366B2, “Cosmetic composition containing salt-fermented extract of natural materials” (Amorepacific Corporation, priority 2008, dated 2012)

Tests used:
procollagen = assay: Test of the effect of promoting procollagen production in human fibroblasts; assay type: cell-based; conditions: human fibroblasts treated at 10^−4 mole for 24 hours; procollagen type-1 C-peptide EIA; untreated control group set as 100
Method: Procollagen is a collagen production-inducing substance necessary for collagen production and aging prevention, and if the degree of production of procollagen is high, the degree of production of collagen is also high, and thus the production of skin wrinkles can be prevented. Also, vitamin C is known as a component essential for the synthesis of collagen. […] The cell culture broths were then collected. After 24 hours, the amount of released procollagen in the medium was measured with a procollagen type-1 C-peptide EIA kit (MK101, Takara, Japan). Based on the measurement results, the production of procollagen was calculated according to the following Equation 2. Herein, the production of procollagen collected from the group not treated with the composition was used as a control group. […] [formula]

collagenase = assay: Measurement of collagenase expression inhibitory activity in human fibroblasts; assay type: cell-based; conditions: human fibroblasts treated at 10^−4 mole for 24 hours; untreated control group set as 100
Method: The collagenase expression inhibitory activity of the extracts of natural materials, prepared in Comparative Examples 1 and 2, and the salt-fermented extracts of natural materials, prepared in Examples 1 to 7, were measured comparatively with those of tocopherol and EGCG. […] Tocopherol and EGCG, which are antioxidant substances, are known to prevent skin aging by regenerating the epidermal cells of the skin.
In the test, human fibroblasts were seeded into a 96-well microtiter plate containing DMEM (Dulbecco's Modified Eagle's Media) medium containing 2.5% fetal bovine serum to a density of 5,000 cells/well and were cultured to a confluence of about 90%. […]
The collected cell culture broths were measured for collagenase production using a commercially available collagenase measurement device (Amersham Phamasia, USA). […]
The absorbance of the 96-well plate having a yellow color was measured at 405 nm using an absorbance spectrometer, and the degree of synthesis of collagenase was calculated according to the following Equation 1. Herein, the absorbance of the cell culture broth collected from the group not treated with the composition was used as a control. That is, the expression of collagenase in the control group was set as 100, and the expression of collagenase in the group treated with the composition was calculated relative to the control group.

Molecule	Procollagen production (%) (procollagen)	Collagenase expression (%) (collagenase)
O=C1O[C@H]([C@@H](O)CO)C(O)=C1O [Vitamin C, vitamin C]	120%	
O=C(O[C@@H]1Cc2c(O)cc(O)cc2O[C@@H]1c1cc(O)c(O)c(O)c1)c1cc(O)c(O)c(O)c1 [EGCG]		60%
tocopherol		75%
